Test results as given in patent US20060095978A1, “Screening assay” (priority 2002, published 2006).

Legend:
Assay type in all cases: in vivo, mouse
IL-1β = experiment: Serum IL-1β in DO11.10 mice primed with OVA-peptide and challenged with LPS
Procedure: (§1) Animals are provided as described in Example 2a).
(§2) b) Administration of OVA323-339 (=OVA-peptide) and LPS Groups of six DO11.10 mice receive i.p. 30 μg of OVA323-339 peptide (98% purity, pi Chem R&D, Graz Austria) in 0.2 ml 0.9% saline per mouse. Control mice are injected i.p. with the same amount of saline.
(§3) 18 hours later the mice are challenged i.p. with 100, 300 or 500 μg LPS (E. coli 0111: B4 Sigma Vienna, Austria). At 2, 4 and 6 hours after the LPS administration about 200 μl of blood are collected by puncture of the retro-orbital plexus under ether anesthesia. The sera are collected and stored frozen at −20° until analyzed.
(§4) Murine IL-1α, IL-1β and TNF-α serum levels are determined by ELISAs (IL-1α and TNF-α, Bender MedSystems, Vienna Austria; IL-1β, Quantikine R&D Systems, Minneapolis, Minn.). Results are expressed as pg per ml serum. Differences in the serum cytokines concentrations between the different experimental groups are examined for statistical significance by the Mann-Whitney U test, two tailed. Results are expressed as the mean±SEM. p<0.05 is regarded as significant.
Values of serum IL-1β responses in control DO11.10 mice challenged with various doses of LPS (=NaCl+LPS) and in mice primed with the OVA-peptide 18 hours prior to the LPS challenge (=OVA+LPS) are given in TABLE 7. The serum IL-1β levels are expressed as mean pg per ml serum±SEM.

IFN-γ = experiment: Serum IFN-γ in OVA/OVA323-339 stimulated DO11.10 mice (ELISA); conditions: for IFN-γ level in pg/ml serum on day 0 after 0 hours: 0 hours (before injection); for increase of INF-γ serum concentration: 90 μg per mouse
Procedure: Groups of six, 8-10 weeks old, male or female DO11.10 mice weighing between 20-22 g are obtained as described in Murphy K. M. et al. 1990, Science 250:1720-1722. The animals are maintained in Microvent positive air supply cages (22±1° C., 55±5% relative humidity, 50-70 changes of fresh air/hour and 12 hours day and night cycle) with sawdust bedding. Standard laboratory mouse chow (SNIFF, Soest, Germany) and drinking water is given ad libidum. The animals are used for the study after an adaptation period of 10-14 days and grouped (6 per group) in type II Macrolon cages one day before the experiment.
Groups of six DO11.10 mice are i.p. injected with 10 μg of ovalbumin (OVA, Sigma, St. Louis, USA) absorbed to 2 mg of Al(OH)3 (Alu Gel S; 2% Al(OH)3, Serva, Heidelberg, FRG) and diluted with saline to a volume of 0.2 ml or various amounts (1, 3, 10, 30, or 90 μg per mouse) of alum-precipitated OVA323-339 peptide (98% purity, piChem R&D, Graz Austria) in 0.2 ml on days 0 and 14. Before and at different time points on days 0 and 14 after the OVA or OVA323-339 peptide administration about 200 μl of blood are collected by puncture of the retro-orbital plexus under ether anesthesia.
The sera are collected and stored frozen at −20° C. until analyzed. […]
Murine IL-2, IFN-γ and IL-4 are analyzed by immunoassays (Quantikine R&D Systems, Minneapolis, Minn., USA). Results are expressed as pg per ml serum expressed as mean±SEM pg of the cytokine indicated per ml serum. Test and control groups are evaluated by Dunn test by Kruskall-Wallis One Way Anova using the SigmaStat® program. […]
Mice of the control group are injected with alum. Blood is collected before and at 2, 4, and 6 hours after the first peptide injection. INF-γ is determined in the sera by an ELISA. Results are expressed as mean pg per ml serum±SEM. […]

IL-1α = experiment: Serum IL-1α in DO11.10 mice primed with OVA-peptide and challenged with LPS; conditions: challenged with the highest LPS dose
Procedure: as §1, §2, §3, §4
The injection of OVA-peptide at doses between 3 and 90 μg per mouse increases serum concentrations of IFN-γ as well as other cytokines, such as IL-4 and IL-2, in a dose/amount-dependent way. […] The serum IL-1α levels are expressed as mean pg per ml serum±SEM.

OVA323-339: peptide derived from chicken ovalbumin containing amino acids from position 323 to 339 (KISQAVHAAHAEINEAG; UniProt P01012 323-339, looked up, fragment)
IL-1β in OVA-peptide primed versus unprimed mice (IL-1β; 100 μg LPS, 2 hours): 1.6 fold | IL-1β in OVA-peptide primed versus unprimed mice (IL-1β; 100 μg LPS, 4 hours): 1.7 fold | IL-1β in OVA-peptide primed versus unprimed mice (IL-1β; 100 μg LPS, 6 hours): 7.8 fold | IL-1β in OVA-peptide primed versus unprimed mice (IL-1β; 300 μg LPS, 2 hours): 1.9 fold | IL-1β in OVA-peptide primed versus unprimed mice (IL-1β; 300 μg LPS, 4 hours): 2.7 fold | IL-1β in OVA-peptide primed versus unprimed mice (IL-1β; 300 μg LPS, 6 hours): 3.0 fold | IL-1β in OVA-peptide primed versus unprimed mice (IL-1β; 500 μg LPS, 2 hours): 3.5 fold | IL-1β in OVA-peptide primed versus unprimed mice (IL-1β; 500 μg LPS, 4 hours): 2.2 fold | IL-1β in OVA-peptide primed versus unprimed mice (IL-1β; 500 μg LPS, 6 hours): 5.7 fold | IFN-γ level in pg/ml serum on day 0 after 0 hours (IFN-γ; 1 μg OVA323-339 i.p.): 11.181 ± 1.288 pg/mL | IFN-γ level in pg/ml serum on day 0 after 2 hours (IFN-γ; 1 μg OVA323-339 i.p.): 18.047 ± 3.944 pg/mL | IFN-γ level in pg/ml serum on day 0 after 4 hours (IFN-γ; 1 μg OVA323-339 i.p.): 41.034 ± 12.394 pg/mL | IFN-γ level in pg/ml serum on day 0 after 6 hours (IFN-γ; 1 μg OVA323-339 i.p.): 15.925 ± 4.594 pg/mL | IFN-γ level in pg/ml serum on day 0 after 0 hours (IFN-γ; 3 μg OVA323-339 i.p.): 8.230 ± 1.430 pg/mL | IFN-γ level in pg/ml serum on day 0 after 2 hours (IFN-γ; 3 μg OVA323-339 i.p.): 62.724 ± 7.939 pg/mL | IFN-γ level in pg/ml serum on day 0 after 4 hours (IFN-γ; 3 μg OVA323-339 i.p.): 63.023 ± 12.462 pg/mL | IFN-γ level in pg/ml serum on day 0 after 6 hours (IFN-γ; 3 μg OVA323-339 i.p.): 25.962 ± 8.858 pg/mL | increase of serum INF-γ levels compared to alum control (IFN-γ; 3 μg, at 2 and 4 hours): about 11 fold | IFN-γ level in pg/ml serum on day 0 after 0 hours (IFN-γ; 10 μg OVA323-339 i.p.): 0.374 ± 0.324 pg/mL | IFN-γ level in pg/ml serum on day 0 after 2 hours (IFN-γ; 10 μg OVA323-339 i.p.): 65.927 ± 23.147 pg/mL | IFN-γ level in pg/ml serum on day 0 after 4 hours (IFN-γ; 10 μg OVA323-339 i.p.): 202.260 ± 48.410 pg/mL | IFN-γ level in pg/ml serum on day 0 after 6 hours (IFN-γ; 10 μg OVA323-339 i.p.): 24.047 ± 9.455 pg/mL | rise in INF-γ serum levels compared to alum alone (IFN-γ; 10 μg OVA323-339 peptide 2 weeks after 10 μg OVA): ~25 fold | IFN-γ level in pg/ml serum on day 0 after 0 hours (IFN-γ; 30 μg OVA323-339 i.p.): 3.988 ± 0.700 pg/mL | IFN-γ level in pg/ml serum on day 0 after 2 hours (IFN-γ; 30 μg OVA323-339 i.p.): 207.727 ± 62.093 pg/mL | IFN-γ level in pg/ml serum on day 0 after 4 hours (IFN-γ; 30 μg OVA323-339 i.p.): 176.807 ± 79.268 pg/mL | IFN-γ level in pg/ml serum on day 0 after 6 hours (IFN-γ; 30 μg OVA323-339 i.p.): 187.325 ± 62.370 pg/mL | increase of serum IFN-γ levels (IFN-γ; 30 μg per mouse, at 2, 4 and 6 hours): 32-38 fold | IFN-γ level in pg/ml serum on day 0 after 2 hours (IFN-γ; 90 μg OVA323-339 i.p.): 407.899 ± 106.513 pg/mL | IFN-γ level in pg/ml serum on day 0 after 4 hours (IFN-γ; 90 μg OVA323-339 i.p.): 413.925 ± 65.247 pg/mL | IFN-γ level in pg/ml serum on day 0 after 6 hours (IFN-γ; 90 μg OVA323-339 i.p.): 514.918 ± 72.758 pg/mL | increase of INF-γ serum concentration (IFN-γ; at 2 and 4 hours): 75 fold | increase of INF-γ serum concentration (IFN-γ; at 6 hours): 94 fold | increase of serum IFN-γ levels (IFN-γ; 10 g (printed) of peptide, at 4 hours): about 40 fold | increase in IFN-γ levels in sera (IFN-γ; first injection of 10 μg peptide, 3 hours after): 50 fold | change in serum INF-γ levels (IFN-γ; primary stimulation, 1 μg per mouse, only at 4 hours): small increase | rise of INF-γ levels after second sensitization (IFN-γ; second sensitization, same dose (10 μg) of peptide): same magnitude | effect of OVA-peptide priming on IL-1α serum levels (IL-1α): rapid increase
